Assay results from paper PMC7948503, “Optimization of a peptide ligand for the adhesion GPCR ADGRG2 provides a potent tool to explore receptor biology” (The Journal of Biological Chemistry, 2020).
Non-standard residues stand in square brackets, D forms with d. Residues, ends and D or L forms follow the SMILES beside them. Phe(4-Me) = Cc1ccc(C[C@H](N)C(=O)O)cc1

What was measured:
Assay in all cases: GloSensor cAMP assay
Assay type in all cases: cell-based
ADGRG2-ΔGPS-β M839A = biological target: T1, ADGRG2-ΔGPS-β M839A (Mus musculus, UniProt Q8CJ12, M853A); conditions: mutant M839A; HEK293, cAMP Glosensor
T1 construct: expressed in transfected cells; host or cells: HEK293
Source text: (§1) Wildtype ADGRG2 full-length (ADGRG2-FL) was cloned from mouse total cDNA libraries using the following primers: forward, […]; reverse, […], and then ADGRG2-FL, ADGRG2 C-terminal truncation mutant (ADGRG2-β), and ADGRG2-ΔGPS-β (the entire ECD of ADGRG2 was deleted) were subcloned into the pcDNA3.1 expression vector. The ADGRG2-ΔGPS-β mutants (T610A, Y611A, C614A, S661A, W662A, I663A, L665A, Y666A，N667A, F671A, L679A, L683A, I730A, V731A, F741A, F747A, W757A, I758A, N759A, S760A, V762A, F764A, Y765A, V768A, V769A, F772A, V774A, W824A, F826A, F828A, F829A, V834A, V836A, F838A, M839A, I844A, F845A) were generated using a QuikChange Mutagenesis Kit (Stratagene). All mutations were verified by DNA sequencing.
(§2) The Glosensor cAMP assay was performed as described ([6], [39], [40]). HEK293 cells were transfected with the GloSensor plasmid and the desired expression plasmids in 24-well dishes. Twenty-four hours after transfection, the cells were plated on 96-well plates at a cell density of 20,000 cells/well. The cells were maintained in Dulbecco’s modified Eagle’s medium for another 24 h, washed with PBS, and then incubated with 100 μl of solution containing 10% fetal bovine serum, 2% (v/v) GloSensor cAMP reagent, and 88% CO2-independent medium in each well for 2 h. The cAMP signal was examined using a luminescence counter (Mithras LB 940).

ADGRG2-ΔGPS-β V769A = biological target: T2, ADGRG2-ΔGPS-β V769A (Mus musculus, UniProt Q8CJ12, V783A); conditions: mutant V769A; HEK293, cAMP Glosensor
T2 construct: expressed in transfected cells; host or cells: HEK293
Source text: as §1, §2

ADGRG2-ΔGPS-β F764A = biological target: T3, ADGRG2-ΔGPS-β F764A (Mus musculus, UniProt Q8CJ12, F778A); conditions: mutant F764A; HEK293, cAMP Glosensor
T3 construct: expressed in transfected cells; host or cells: HEK293
Source text: as §1, §2

ADGRG2-ΔGPS-β V731A = biological target: T4, ADGRG2-ΔGPS-β V731A (Mus musculus, UniProt Q8CJ12, V745A); conditions: mutant V731A; HEK293, cAMP Glosensor
T4 construct: expressed in transfected cells; host or cells: HEK293
Source text: as §1, §2

ADGRG2-ΔGPS-β F828A = biological target: T5, ADGRG2-ΔGPS-β F828A (Mus musculus, UniProt Q8CJ12, F842A); conditions: mutant F828A; HEK293, cAMP Glosensor
T5 construct: expressed in transfected cells; host or cells: HEK293
Source text: as §1, §2

ADGRG2-ΔGPS-β W824A = biological target: T6, ADGRG2-ΔGPS-β W824A (Mus musculus, UniProt Q8CJ12, W838A); conditions: mutant W824A; HEK293, cAMP Glosensor
T6 construct: expressed in transfected cells; host or cells: HEK293
Source text: as §1, §2

ADGRG2-ΔGPS-β T610A = biological target: T7, ADGRG2-ΔGPS-β T610A (Mus musculus, UniProt Q8CJ12, T624A); conditions: mutant T610A; HEK293, cAMP Glosensor
T7 construct: expressed in transfected cells; host or cells: HEK293
Source text: as §1, §2

ADGRG2-ΔGPS-β F829A = biological target: T8, ADGRG2-ΔGPS-β F829A (Mus musculus, UniProt Q8CJ12, F843A); conditions: mutant F829A; HEK293, cAMP Glosensor
T8 construct: expressed in transfected cells; host or cells: HEK293
Source text: as §1, §2

ADGRG2-ΔGPS-β I730A = biological target: T9, ADGRG2-ΔGPS-β I730A (Mus musculus, UniProt Q8CJ12, I744A); conditions: mutant I730A; HEK293, cAMP Glosensor
T9 construct: expressed in transfected cells; host or cells: HEK293
Source text: as §1, §2

ADGRG2-ΔGPS-β W662A = biological target: T10, ADGRG2-ΔGPS-β W662A (Mus musculus, UniProt Q8CJ12, W676A); conditions: mutant W662A; HEK293, cAMP Glosensor
T10 construct: expressed in transfected cells; host or cells: HEK293
Source text: as §1, §2

ADGRG2-ΔGPS-β F671A = biological target: T11, ADGRG2-ΔGPS-β F671A (Mus musculus, UniProt Q8CJ12, F685A); conditions: mutant F671A; HEK293, cAMP Glosensor
T11 construct: expressed in transfected cells; host or cells: HEK293
Source text: as §1, §2

ADGRG2-ΔGPS-β S760A = biological target: T12, ADGRG2-ΔGPS-β S760A (Mus musculus, UniProt Q8CJ12, S774A); conditions: mutant S760A; HEK293, cAMP Glosensor
T12 construct: expressed in transfected cells; host or cells: HEK293
Source text: as §1, §2

ADGRG2-ΔGPS-β V762A = biological target: T13, ADGRG2-ΔGPS-β V762A (Mus musculus, UniProt Q8CJ12, V776A); conditions: mutant V762A; HEK293, cAMP Glosensor
T13 construct: expressed in transfected cells; host or cells: HEK293
Source text: as §1, §2

ADGRG2-ΔGPS-β C614A = biological target: T14, ADGRG2-ΔGPS-β C614A (Mus musculus, UniProt Q8CJ12, C628A); conditions: mutant C614A; HEK293, cAMP Glosensor
T14 construct: expressed in transfected cells; host or cells: HEK293
Source text: as §1, §2

ADGRG2-ΔGPS-β I844A = biological target: T15, ADGRG2-ΔGPS-β I844A (Mus musculus, UniProt Q8CJ12, I858A); conditions: mutant I844A; HEK293, cAMP Glosensor
T15 construct: expressed in transfected cells; host or cells: HEK293
Source text: as §1, §2

ADGRG2-ΔGPS-β S661A = biological target: T16, ADGRG2-ΔGPS-β S661A (Mus musculus, UniProt Q8CJ12, S675A); conditions: mutant S661A; HEK293, cAMP Glosensor
T16 construct: expressed in transfected cells; host or cells: HEK293
Source text: as §1, §2

ADGRG2-ΔGPS-β V768A = biological target: T17, ADGRG2-ΔGPS-β V768A (Mus musculus, UniProt Q8CJ12, V782A); conditions: mutant V768A; HEK293, cAMP Glosensor
T17 construct: expressed in transfected cells; host or cells: HEK293
Source text: as §1, §2

ADGRG2-ΔGPS-β I663A = biological target: T18, ADGRG2-ΔGPS-β I663A (Mus musculus, UniProt Q8CJ12, I677A); conditions: mutant I663A; HEK293, cAMP Glosensor
T18 construct: expressed in transfected cells; host or cells: HEK293
Source text: as §1, §2

ADGRG2-ΔGPS-β Y666A = biological target: T19, ADGRG2-ΔGPS-β Y666A (Mus musculus, UniProt Q8CJ12, Y680A); conditions: mutant Y666A; HEK293, cAMP Glosensor
T19 construct: expressed in transfected cells; host or cells: HEK293
Source text: as §1, §2

ADGRG2-ΔGPS-β Y765A = biological target: T20, ADGRG2-ΔGPS-β Y765A (Mus musculus, UniProt Q8CJ12, Y779A); conditions: mutant Y765A; HEK293, cAMP Glosensor
T20 construct: expressed in transfected cells; host or cells: HEK293
Source text: as §1, §2

T10 sequence (Q8CJ12 614-1009 W676A): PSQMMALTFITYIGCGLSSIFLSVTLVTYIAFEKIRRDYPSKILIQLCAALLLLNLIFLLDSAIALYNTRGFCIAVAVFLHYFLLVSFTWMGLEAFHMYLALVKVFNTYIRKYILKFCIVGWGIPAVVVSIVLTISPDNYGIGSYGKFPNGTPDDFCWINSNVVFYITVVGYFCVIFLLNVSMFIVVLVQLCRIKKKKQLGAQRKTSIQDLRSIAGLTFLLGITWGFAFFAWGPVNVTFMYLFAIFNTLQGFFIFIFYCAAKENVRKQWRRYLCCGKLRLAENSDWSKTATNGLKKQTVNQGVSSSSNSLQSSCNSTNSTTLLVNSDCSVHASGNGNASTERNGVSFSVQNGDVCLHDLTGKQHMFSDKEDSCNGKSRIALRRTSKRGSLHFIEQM
T3 sequence (Q8CJ12 614-1009 F778A): as the sequence (Q8CJ12 614-1009 W676A) above, with A63W, F165A counted along it
T16 sequence (Q8CJ12 614-1009 S675A): as the sequence (Q8CJ12 614-1009 W676A) above, with S62A, A63W counted along it
T7 sequence (Q8CJ12 614-1009 T624A): as the sequence (Q8CJ12 614-1009 W676A) above, with T11A, A63W counted along it
T15 sequence (Q8CJ12 614-1009 I858A): as the sequence (Q8CJ12 614-1009 W676A) above, with A63W, I245A counted along it
T6 sequence (Q8CJ12 614-1009 W838A): as the sequence (Q8CJ12 614-1009 W676A) above, with A63W, W225A counted along it
T8 sequence (Q8CJ12 614-1009 F843A): as the sequence (Q8CJ12 614-1009 W676A) above, with A63W, F230A counted along it
T13 sequence (Q8CJ12 614-1009 V776A): as the sequence (Q8CJ12 614-1009 W676A) above, with A63W, V163A counted along it
T5 sequence (Q8CJ12 614-1009 F842A): as the sequence (Q8CJ12 614-1009 W676A) above, with A63W, F229A counted along it
T19 sequence (Q8CJ12 614-1009 Y680A): as the sequence (Q8CJ12 614-1009 W676A) above, with A63W, Y67A counted along it
T2 sequence (Q8CJ12 614-1009 V783A): as the sequence (Q8CJ12 614-1009 W676A) above, with A63W, V170A counted along it
T12 sequence (Q8CJ12 614-1009 S774A): as the sequence (Q8CJ12 614-1009 W676A) above, with A63W, S161A counted along it
T11 sequence (Q8CJ12 614-1009 F685A): as the sequence (Q8CJ12 614-1009 W676A) above, with A63W, F72A counted along it
T17 sequence (Q8CJ12 614-1009 V782A): as the sequence (Q8CJ12 614-1009 W676A) above, with A63W, V169A counted along it
T18 sequence (Q8CJ12 614-1009 I677A): as the sequence (Q8CJ12 614-1009 W676A) above, with A63W, I64A counted along it
T14 sequence (Q8CJ12 614-1009 C628A): as the sequence (Q8CJ12 614-1009 W676A) above, with C15A, A63W counted along it
T1 sequence (Q8CJ12 614-1009 M853A): as the sequence (Q8CJ12 614-1009 W676A) above, with A63W, M240A counted along it
T4 sequence (Q8CJ12 614-1009 V745A): as the sequence (Q8CJ12 614-1009 W676A) above, with A63W, V132A counted along it
T9 sequence (Q8CJ12 614-1009 I744A): as the sequence (Q8CJ12 614-1009 W676A) above, with A63W, I131A counted along it

EC50 (ADGRG2-ΔGPS-β M839A): 1720 nM | EC50 (ADGRG2-ΔGPS-β V769A): 1690 nM | EC50 (ADGRG2-ΔGPS-β F764A): 938 nM | EC50 (ADGRG2-ΔGPS-β V731A): 1220 nM | EC50 (ADGRG2-ΔGPS-β F828A): 3880 nM | EC50 (ADGRG2-ΔGPS-β W824A): 9750 nM | EC50 (ADGRG2-ΔGPS-β T610A): 1030 nM | EC50 (ADGRG2-ΔGPS-β F829A): 1160 nM | EC50 (ADGRG2-ΔGPS-β I730A): 1330 nM | EC50 (ADGRG2-ΔGPS-β W662A): 1550 nM | EC50 (ADGRG2-ΔGPS-β F671A): 1200 nM | EC50 (ADGRG2-ΔGPS-β S760A): 1950 nM | EC50 (ADGRG2-ΔGPS-β V762A): 2350 nM | EC50 (ADGRG2-ΔGPS-β C614A): 2170 nM | EC50 (ADGRG2-ΔGPS-β I844A): 12900 nM | EC50 (ADGRG2-ΔGPS-β S661A): 2320 nM | EC50 (ADGRG2-ΔGPS-β V768A): 7390 nM | EC50 (ADGRG2-ΔGPS-β I663A): 1200 nM | EC50 (ADGRG2-ΔGPS-β Y666A): 1130 nM | EC50 (ADGRG2-ΔGPS-β Y765A): 1070 nM
SMILES: CC[C@H](C)[C@H](NC(=O)CNC(=O)[C@H](Cc1ccc(C)cc1)NC(=O)[C@H](CO)NC(=O)[C@@H](N)C(C)C)C(=O)N[C@@H](CC(C)C)C(=O)N[C@@H](CC(C)C)C(=O)N[C@@H](CC(=O)O)C(=O)N[C@@H](CC(C)C)C(=O)N[C@@H](CO)C(=O)N[C@@H](CCCNC(=N)N)C(=O)N[C@H](C(=O)N[C@@H](CO)C(=O)N[C@@H](CC(C)C)C(=O)N1CCC[C@H]1C(=O)O)[C@@H](C)O [VPM-p15] (H-VS[Phe(4-Me)]GILLDLSRTSLP-OH)
